The values below are quoted from earlier work in patent publication US20250261683A1, “ORAL COMPOSITION COMPRISING ENCAPSULATED PH ADJUSTING AGENT” (NICOVENTURES TRADING LIMITED, priority 2022, published 2025).

For data set [1] the following is noted: descriptive statement.
For data set [2] the following is noted: descriptive statement; isomerizes to trans-bixin.

As for `CC(/C=C/C=C(C)/C=C/C(=O)O)=C\C=C\C=C(C)\C=C\C=C(C)\C=C\C(=O)O` (stereo in doubt) [norbixin, (2E,4E,6E,8E,10E,12E,14E,16E,18E)-4,8,13,17-tetramethylicosa-2,4,6,8,10,12, 14,16, 18-nonaenedioic acid], the solubility in water result in data set [1] was “water-soluble”.

Consider `COC(=O)/C=C/C(C)=C\C=C\C(C)=C\C=C\C=C(C)\C=C\C=C(C)\C=C\C(=O)O` [bixin, (2E,4E,6E,8E,10E,12E,14E,16Z,18E)-20-methoxy-4,8,13,17-tetramethyl-20-oxoicosa-2,4,6,8,10,12,14,16,18-nonaenoic acid], for which the “chemical stability when isolated” value in data set [2] is “chemically unstable”. Besides, in data set [1], the “solubility in fats and alcohols” value is reported as “soluble”; the solubility in water result is “insoluble”.
